Laboratory results published in patent US20250353833A1, “DPP9 BINDING COMPOUNDS” (UNIVERSITEIT ANTWERPEN, priority 2022, published 2025).
Read-outs that look alike come from different tables or passages of the source.

Tests used:
Type in all cases: biochemical
DPP4 = DPP4 (Homo sapiens (Human), UniProt P27487); test: DPP4 enzyme inhibition, IC50 measurement (Ala-Pro-pNA release); conditions: for IC50: mean ± SD (n = 3)
Description: DPP4 was purified from human seminal plasma as described previously.^[3]
(§1) IC50 measurements. […] The Magellan software was used to process the data, which was then fitted using a non-linear fit model in GraFit 7. […] As a blank, the assay buffer was used instead of the enzyme. Screening measurements were carried out in duplo and IC50 values were determined in triplo with at least eight different inhibitor concentrations as described by Van Goethem et al.

FAP = FAP (Homo sapiens (Human), UniProt Q12884); test: FAP enzyme inhibition, IC50 measurement (Z-Gly-Pro-AMC release); conditions: mean ± SD (n = 3)
DPP8 = DPP8 (Homo sapiens (Human), UniProt Q6V1X1); test: DPP8 enzyme inhibition, IC50 measurement (Ala-Pro-pNA release); conditions: mean ± SD (n = 3), read-out: IC50 DPP8
Description: as §1

DPP2 = DPP2 (Homo sapiens (Human), UniProt Q9UHL4); test: DPP2 enzyme inhibition, IC50 measurement (Lys-Ala-pNA release); conditions: mean ± SD (n = 3)
Description: as §1

DPP9 = DPP9 (Homo sapiens (Human), UniProt Q86TI2); test: DPP9 enzyme inhibition, IC50 measurement (Ala-Pro-pNA release); conditions: for IC50: mean ± SD (n = 3), read-out: IC50 DPP9; for SI DPP9/4: selectivity index DPP9/4; for SI DPP9/8: selectivity index, DPP8 IC50 over DPP9 IC50
How it was run: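 DPP9 inhibitory potency was determined as IC50 in triplicate, using at least eight inhibitor concentrations. Blanks contained assay buffer in place of enzyme. Data were processed with Magellan software and fitted to a non-linear model in GraFit 7.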

PREP = PREP (Homo sapiens (Human), UniProt P48147); test: PREP enzyme inhibition, IC50 measurement (N-succinyl-Gly-Pro-AMC release); conditions: mean ± SD (n = 3)
Description: as §1

DPP9, sequence (Q86TI2 whole entry): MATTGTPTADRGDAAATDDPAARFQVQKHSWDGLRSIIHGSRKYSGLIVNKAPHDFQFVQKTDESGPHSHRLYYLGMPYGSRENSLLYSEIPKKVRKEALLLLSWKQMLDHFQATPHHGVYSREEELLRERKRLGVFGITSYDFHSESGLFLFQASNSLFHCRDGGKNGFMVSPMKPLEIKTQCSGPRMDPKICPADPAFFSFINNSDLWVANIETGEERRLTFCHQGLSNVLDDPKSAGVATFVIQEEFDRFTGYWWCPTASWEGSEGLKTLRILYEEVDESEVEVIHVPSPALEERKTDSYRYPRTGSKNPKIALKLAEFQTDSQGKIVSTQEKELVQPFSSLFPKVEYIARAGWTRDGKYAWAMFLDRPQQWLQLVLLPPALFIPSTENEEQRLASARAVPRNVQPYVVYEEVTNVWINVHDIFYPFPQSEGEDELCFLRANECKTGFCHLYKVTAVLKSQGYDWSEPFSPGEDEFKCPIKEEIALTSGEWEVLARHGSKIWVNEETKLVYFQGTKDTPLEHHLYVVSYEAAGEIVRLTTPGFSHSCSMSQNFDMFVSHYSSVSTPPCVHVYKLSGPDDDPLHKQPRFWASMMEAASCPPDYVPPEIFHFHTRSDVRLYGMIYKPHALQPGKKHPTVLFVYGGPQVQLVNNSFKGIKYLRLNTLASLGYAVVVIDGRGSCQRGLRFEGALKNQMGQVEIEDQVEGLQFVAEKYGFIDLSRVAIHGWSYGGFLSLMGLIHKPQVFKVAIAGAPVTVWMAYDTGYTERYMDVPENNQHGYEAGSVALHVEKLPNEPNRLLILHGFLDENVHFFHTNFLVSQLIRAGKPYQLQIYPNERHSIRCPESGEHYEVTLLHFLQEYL
DPP4, sequence (P27487 whole entry): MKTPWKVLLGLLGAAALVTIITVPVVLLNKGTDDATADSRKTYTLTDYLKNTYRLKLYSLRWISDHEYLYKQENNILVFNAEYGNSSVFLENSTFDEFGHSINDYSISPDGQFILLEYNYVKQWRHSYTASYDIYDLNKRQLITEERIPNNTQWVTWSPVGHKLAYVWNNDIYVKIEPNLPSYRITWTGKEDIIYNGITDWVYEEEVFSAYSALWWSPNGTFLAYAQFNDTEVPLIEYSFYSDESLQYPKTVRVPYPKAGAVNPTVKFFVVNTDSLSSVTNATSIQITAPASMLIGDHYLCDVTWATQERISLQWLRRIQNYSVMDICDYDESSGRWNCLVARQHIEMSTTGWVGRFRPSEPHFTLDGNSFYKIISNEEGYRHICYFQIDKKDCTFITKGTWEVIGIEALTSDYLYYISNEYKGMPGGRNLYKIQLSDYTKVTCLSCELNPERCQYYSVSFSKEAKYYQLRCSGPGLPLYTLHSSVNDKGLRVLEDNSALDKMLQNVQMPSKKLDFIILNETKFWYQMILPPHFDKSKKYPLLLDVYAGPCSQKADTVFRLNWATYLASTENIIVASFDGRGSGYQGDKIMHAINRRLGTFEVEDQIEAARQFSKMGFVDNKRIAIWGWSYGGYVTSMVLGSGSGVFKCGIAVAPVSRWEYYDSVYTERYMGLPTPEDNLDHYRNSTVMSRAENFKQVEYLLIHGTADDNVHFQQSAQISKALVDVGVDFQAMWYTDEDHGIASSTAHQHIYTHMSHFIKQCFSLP
FAP, sequence (Q12884 27-760): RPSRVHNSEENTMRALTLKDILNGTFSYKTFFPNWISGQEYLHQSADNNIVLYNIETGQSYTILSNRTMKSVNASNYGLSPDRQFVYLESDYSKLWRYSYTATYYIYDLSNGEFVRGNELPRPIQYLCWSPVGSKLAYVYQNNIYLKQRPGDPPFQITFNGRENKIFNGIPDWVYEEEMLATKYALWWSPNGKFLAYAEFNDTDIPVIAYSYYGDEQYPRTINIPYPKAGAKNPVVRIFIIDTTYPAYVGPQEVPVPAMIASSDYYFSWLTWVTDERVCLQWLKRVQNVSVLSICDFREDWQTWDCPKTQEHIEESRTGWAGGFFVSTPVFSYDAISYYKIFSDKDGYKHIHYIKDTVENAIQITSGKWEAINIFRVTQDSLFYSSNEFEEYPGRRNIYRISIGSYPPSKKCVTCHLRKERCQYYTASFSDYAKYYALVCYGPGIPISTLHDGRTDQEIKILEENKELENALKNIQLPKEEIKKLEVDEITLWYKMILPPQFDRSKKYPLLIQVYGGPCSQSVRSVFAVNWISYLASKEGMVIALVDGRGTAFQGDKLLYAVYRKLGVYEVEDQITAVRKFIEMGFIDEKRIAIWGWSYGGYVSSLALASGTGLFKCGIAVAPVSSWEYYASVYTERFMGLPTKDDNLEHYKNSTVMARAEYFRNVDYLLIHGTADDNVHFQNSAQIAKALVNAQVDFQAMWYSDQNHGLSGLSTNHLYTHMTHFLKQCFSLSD
DPP8, sequence (Q6V1X1 whole entry): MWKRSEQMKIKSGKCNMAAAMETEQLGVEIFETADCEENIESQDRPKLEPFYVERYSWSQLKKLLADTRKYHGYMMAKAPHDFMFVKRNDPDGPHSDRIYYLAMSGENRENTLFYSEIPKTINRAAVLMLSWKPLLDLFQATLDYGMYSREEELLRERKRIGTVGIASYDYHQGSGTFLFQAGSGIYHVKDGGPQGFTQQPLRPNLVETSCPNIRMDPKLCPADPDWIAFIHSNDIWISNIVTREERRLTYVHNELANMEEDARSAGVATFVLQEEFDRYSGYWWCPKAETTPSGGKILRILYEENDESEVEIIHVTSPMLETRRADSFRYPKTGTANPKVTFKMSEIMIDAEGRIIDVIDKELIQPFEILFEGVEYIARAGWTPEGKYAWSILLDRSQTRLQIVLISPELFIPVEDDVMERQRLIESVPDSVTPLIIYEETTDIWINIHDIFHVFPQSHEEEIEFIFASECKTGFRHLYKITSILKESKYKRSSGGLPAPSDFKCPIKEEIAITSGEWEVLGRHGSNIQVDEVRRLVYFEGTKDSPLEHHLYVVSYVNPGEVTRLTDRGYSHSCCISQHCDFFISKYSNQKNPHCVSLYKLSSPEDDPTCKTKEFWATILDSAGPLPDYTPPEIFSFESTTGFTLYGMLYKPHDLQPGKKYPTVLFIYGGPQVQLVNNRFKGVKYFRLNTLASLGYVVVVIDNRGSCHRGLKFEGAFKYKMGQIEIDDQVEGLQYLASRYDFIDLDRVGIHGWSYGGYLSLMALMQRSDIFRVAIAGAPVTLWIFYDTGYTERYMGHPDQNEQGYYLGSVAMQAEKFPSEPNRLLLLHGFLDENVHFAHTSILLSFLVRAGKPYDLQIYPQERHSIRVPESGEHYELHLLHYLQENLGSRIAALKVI
PREP, sequence (P48147 whole entry): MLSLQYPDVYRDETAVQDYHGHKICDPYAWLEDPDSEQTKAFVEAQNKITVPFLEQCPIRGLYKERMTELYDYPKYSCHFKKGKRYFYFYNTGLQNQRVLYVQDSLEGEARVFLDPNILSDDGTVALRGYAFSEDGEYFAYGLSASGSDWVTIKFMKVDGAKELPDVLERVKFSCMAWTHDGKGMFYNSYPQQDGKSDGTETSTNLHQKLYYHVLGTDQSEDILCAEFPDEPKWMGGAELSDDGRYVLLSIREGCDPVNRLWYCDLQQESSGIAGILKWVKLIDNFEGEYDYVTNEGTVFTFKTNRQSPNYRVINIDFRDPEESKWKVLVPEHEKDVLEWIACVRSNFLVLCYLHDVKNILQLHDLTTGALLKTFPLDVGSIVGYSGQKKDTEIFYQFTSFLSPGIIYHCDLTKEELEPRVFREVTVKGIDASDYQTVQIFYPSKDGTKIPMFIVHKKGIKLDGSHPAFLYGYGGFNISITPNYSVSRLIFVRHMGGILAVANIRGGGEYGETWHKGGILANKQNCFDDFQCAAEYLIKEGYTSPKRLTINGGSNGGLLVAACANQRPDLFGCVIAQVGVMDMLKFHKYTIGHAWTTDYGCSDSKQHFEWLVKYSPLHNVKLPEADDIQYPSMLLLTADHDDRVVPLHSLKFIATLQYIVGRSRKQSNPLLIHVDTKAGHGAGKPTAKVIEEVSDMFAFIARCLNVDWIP

IC50 (DPP4; Table 1) | IC50 (FAP; Table 1) | IC50 (DPP8; Table 1) | IC50 (DPP2; Table 1) | IC50 (DPP9; Table 1) | SI DPP9/4 (DPP9; Table 1) | SI DPP9/8 (DPP9; Table 1) | IC50 (PREP; Table 1) | DPP9 inhibitory potency (in words) (DPP9) | DPP4 potency decrease (DPP4; 5p compared with vildagliptin/4) | IC50 (DPP4; Table 2) | IC50 (FAP; Table 2) | IC50 (DPP8; Table 2) | IC50 (DPP2; Table 2) | IC50 (DPP9; Table 2) | SI DPP9/4 (DPP9; Table 2) | SI DPP9/8 (DPP9; Table 2) | IC50 (PREP; Table 2) | DPP9/8 selectivity index (DPP9) | Structure (SMILES)
5 ± 1 nM | > 10 µM | 540 ± 100 nM | > 5 µM | 52 ± 8 nM | 0.1 | 10 | 2.2 ± 0.2 µM | – | – | – | – | – | – | – | – | – | – | – | N#C[C@@H]1CCCN1C(=O)CNC12CC3CC(C1)CC(OCc1ccc(F)cc1F)(C3)C2 [Compound 5b, (S)-1-((-3-((2,4-difluorobenzyl)oxy)adamantan-1-yl)glycyl)pyrrolidine-2-carbonitrile]
32 ± 3 nM | > 10 µM | 150 ± 20 nM | > 5 µM | 16 ± 1 nM | 2 | 9.4 | > 10 µM | – | – | – | – | – | – | – | – | – | – | – | N#C[C@@H]1C[C@H](N=[N+]=[N-])CN1C(=O)CNC12CC3CC(CC(O)(C3)C1)C2 [Compound 5d, (2S,4S)-4-azido-1-((-3-hydroxyadamantan-1-yl)glycyl)pyrrolidine-2-carbonitrile]
17 ± 3 nM | > 10 µM | 60 ± 4 nM | > 5 µM | 10 ± 1 nM | 1.7 | 6.0 | > 10 µM | – | – | – | – | – | – | – | – | – | – | – | N#C[C@@H]1C[C@H](N=[N+]=[N-])CN1C(=O)CNC12CC3CC(C1)CC(OCc1ccccc1)(C3)C2 [Compound 5e, (2S,4S)-4-azido-1-((3-(benzyloxy)adamantan-1-yl)glycyl)pyrrolidine-2-carbonitrile]
24 ± 3 nM | > 10 µM | 41 ± 7 nM | > 5 µM | 6 ± 1 nM | 3.3 | 6.8 | > 10 µM | most potent DPP9 inhibitor | – | – | – | – | – | – | – | – | – | – | N#C[C@@H]1C[C@H](N=[N+]=[N-])CN1C(=O)CNC12CC3CC(C1)CC(OCc1ccc(F)cc1F)(C3)C2 [Compound 5f, (2S,4S)-4-azido-1-((3-((2,4-difluorobenzyl)oxy)adamantan-1-yl)glycyl)pyrrolidine-2-carbonitrile]
230 ± 70 nM | > 10 µM | 1000 ± 200 nM | > 5 µM | 260 ± 30 nM | 0.9 | 3.9 | > 10 µM | – | – | – | – | – | – | – | – | – | – | – | C=C1C[C@@H](C#N)N(C(=O)CNC23CC4CC(CC(O)(C4)C2)C3)C1 [Compound 5h, (2S)-1-((3-hydroxyadamantan-1-yl)glycyl)-4-methylenepyrrolidine-2-carbonitrile]
280 ± 10 nM | > 10 µM | 340 ± 6 nM | 1.27 ± 0.2 µM | 120 ± 30 nM | 2.3 | 2.9 | 8.92 ± 1 µM | – | – | – | – | – | – | – | – | – | – | – | C=C1C[C@@H](C#N)N(C(=O)CNC23CC4CC(C2)CC(OCc2ccccc2)(C4)C3)C1 [Compound 5i, (S)-1-((3-(benzyloxy)adamantan-1-yl)glycyl)-4-methylenepyrrolidine-2-carbonitrile]
410 ± 100 nM | > 10 µM | 370 ± 70 nM | 1.1 ± 0.08 µM | 130 ± 20 nM | 3.1 | 2.8 | > 10 µM | – | – | – | – | – | – | – | – | – | – | – | C=C1C[C@@H](C#N)N(C(=O)CNC23CC4CC(C2)CC(OCc2ccc(F)cc2F)(C4)C3)C1 [Compound 5j, (2S)-1-((3-((2,4-difluorobenzyl)oxy)adamantan-1-yl)glycyl)-4-methylenepyrrolidine-2-carbonitrile]
100 ± 40 nM | > 10 µM | 5900 ± 400 nM | > 5 µM | 670 ± 200 nM | 0.15 | 8.7 | > 10 µM | – | – | – | – | – | – | – | – | – | – | – | N#C[C@@H]1[C@@H]2C[C@@H]2CN1C(=O)CNC12CC3CC(C1)CC(OCc1ccccc1)(C3)C2 [Compound 5m, (1R,2S,5S)-3-((-3-(benzyloxy)adamantan-1-yl)glycyl)-3-azabicyclo[3.1.0]hexane-2-carbonitrile]
200 ± 10 nM | > 10 µM | 2000 ± 2000 nM | > 5 µM | 620 ± 10 nM | 0.3 | 3.4 | > 10 µM | – | – | – | – | – | – | – | – | – | – | – | N#C[C@@H]1[C@@H]2C[C@@H]2CN1C(=O)CNC12CC3CC(C1)CC(OCc1ccc(F)cc1F)(C3)C2 [Compound 5n, (1R,2S,5S)-3-((3-((2,4-difluorobenzyl)oxy)adamantan-1-yl)glycyl)-3-azabicyclo[3.1.0]hexane-2-carbonitrile]
– | – | – | – | – | – | – | – | – | at least 100 fold | > 10000 nM | > 10 µM | 17700 ± 800 nM | > 5 µM | 4100 ± 700 nM | >2.4 | 4.3 | > 10 µM | – | O=C(CNC12CC3CC(CC(O)(C3)C1)C2)N1Cc2ccccc2C1 [Compound 5p, 2-((-3-hydroxyadamantan-1-yl)amino)-1-(isoindolin-2-yl)ethan-1-one]
– | – | – | – | – | – | – | – | – | – | > 10000 nM | > 10 µM | 6900 ± 2000 nM | > 5 µM | 1200 ± 200 nM | >8.5 | 5.8 | > 10 µM | – | O=C(CNC12CC3CC(C1)CC(OCc1ccccc1)(C3)C2)N1Cc2ccccc2C1 [Compound 5q, 2-((3-(benzyloxy)adamantan-1-yl)amino)-1-(isoindolin-2-yl)ethan-1-one]
– | – | – | – | – | – | – | – | – | – | > 10000 nM | > 10 µM | 1540 ± 90 nM | > 5 µM | 380 ± 70 nM | >26.4 | 4.1 | > 10 µM | 4.1 | O=C(CNC12CC3CC(C1)CC(OCc1ccc(F)cc1F)(C3)C2)N1Cc2ccccc2C1 [Compound 5r, 2-((-3-((2,4-difluorobenzyl)oxy)adamantan-1-yl)amino)-1-(isoindolin-2-yl)ethan-1-one]

Structure (SMILES) | IC50 (DPP4; Table 1) | IC50 (FAP; Table 1) | IC50 (DPP8; Table 1) | IC50 (DPP2; Table 1) | IC50 (DPP9; Table 1) | SI DPP9/4 (DPP9; Table 1) | SI DPP9/8 (DPP9; Table 1) | IC50 (PREP; Table 1) | DPP9 inhibitory potency (in words) (DPP9) | DPP4 potency decrease (DPP4; 5p compared with vildagliptin/4) | IC50 (DPP4; Table 2) | IC50 (FAP; Table 2) | IC50 (DPP8; Table 2) | IC50 (DPP2; Table 2) | IC50 (DPP9; Table 2) | SI DPP9/4 (DPP9; Table 2) | SI DPP9/8 (DPP9; Table 2) | IC50 (PREP; Table 2) | DPP9/8 selectivity index (DPP9)
CCCCOC12CC3CC(CC(NCC(=O)N4CCC[C@H]4C#N)(C3)C1)C2 [Compound 5c, (2S)-1-((-3-butoxyadamantan-1-yl)glycyl)pyrrolidine-2-carbonitrile] | 12 ± 2 nM | > 10 µM | 1250 ± 100 nM | > 5 µM | 150 ± 10 nM | 0.07 | 8.5 | > 10 µM | – | – | – | – | – | – | – | – | – | – | –
C=C1C[C@@H](C#N)N(C(=O)CNC23CC4CC(C2)CC(OCCCC)(C4)C3)C1 [Compound 5k, (S)-1-((-3-butoxyadamantan-1-yl)glycyl)-4-methylenepyrrolidine-2-carbonitrile] | 320 ± 10 nM | > 10 µM | 530 ± 10 nM | 1.2 ± 0.4 µM | 210 ± 50 nM | 1.5 | 2.5 | 2.2 ± 0.2 µM | – | – | – | – | – | – | – | – | – | – | –
CCCCOC12CC3CC(CC(NCC(=O)N4C[C@H]5C[C@H]5[C@H]4C#N)(C3)C1)C2 [Compound 5o, (1R,2S,5S)-3-((-3-butoxyadamantan-1-yl)glycyl)-3-azabicyclo[3.1.0]hexane-2-carbonitrile] | – | > 10 µM | > 10000 nM | > 5 µM | 990 ± 400 nM | – | – | > 10 µM | – | – | – | – | – | – | – | – | – | – | –
CCCCOC12CC3CC(CC(NCC(=O)N4Cc5ccccc5C4)(C3)C1)C2 [Compound 5s, 2-((-3-butoxyadamantan-1-yl)amino)-1-(isoindolin-2-yl)ethan-1-one] | – | – | – | – | – | – | – | – | – | – | > 10000 nM | > 10 µM | 3100 ± 100 nM | > 5 µM | 490 ± 40 nM | >20.4 | 6.4 | > 10 µM | –
